# According to patent US20240025862A1, “SUBSTITUTED N-PHENYLURACILS AND SALTS THEREOF, AND USE THEREOF AS HERBICIDAL ACTIVE SUBSTANCES” (Bayer Aktiengesellschaft, priority 2020, published 2024):
# Experiments:
# Assay type in all cases: in vivo
# [1] = system: Zea mays (ZEAMX); assay: Post-emergence crop plant compatibility, greenhouse pot test; conditions: 1.25 g/ha, vs untreated controls
# How it was run: (§1)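 Greenhouse pot test; post-emergence foliar spray at one-leaf stage, WP or EC in water + 0.5% additive, 600 l/ha. Visual rating after ~3 wk, % relative to untreated (0–100%).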
# [2] = system: Glycine max (GLXMA); assay: as above
# How it was run: as §1
# [3] = system: Triticum aestivum (TRZAS); assay: as above; conditions: vs untreated controls
# How it was run: as §1
# [4] = system: Amaranthus retroflexus (AMARE); assay: Post-emergence herbicidal action, greenhouse pot test; conditions: rated visually after about 3 weeks vs untreated controls, 100% = plants have died
# How it was run: (§2)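 Activity was scored by eye about 3 weeks after treatment against untreated plants, where 100% means dead plants and 0% means no difference. Plants at the one-leaf stage received a foliar spray of WP or EC formulations in water plus 0.5% additive (600 l/ha, up to 20 g/ha). Plants were grown in sandy loam pots in a greenhouse for 2–3 weeks before spraying.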
# [5] = system: Veronica persica (VERPE); assay: as above
# How it was run: as §2
# [6] = system: Abutilon theophrasti (ABUTH); assay: as above; conditions: rated visually after about 3 weeks vs untreated controls, 100% = plants have died
# How it was run: as §2
# [7] = system: Viola tricolor (VIOTR); assay: as above
# How it was run: as §2
# [8] = system: Avena fatua (AVEFA); assay: as above; conditions: 20 g/ha, rated visually after about 3 weeks vs untreated controls, 100% = plants have died
# How it was run: as §2
# [9] = system: Pharbitis purpurea (PHBPU); assay: as above
# How it was run: as §2
# [10] = system: Lolium rigidum (LOLRI); assay: as above; conditions: dosage 20 g/ha
# How it was run: as §2
# [11] = system: Polygonum convolvulus (POLCO); assay: as above; conditions: dosage 20 g/ha
# How it was run: as §2
# [12] = system: Alopecurus myosuroides (ALOMY); assay: Post-emergence herbicidal action, greenhouse pot test (also comparative test C); conditions: rated visually after about 3 weeks vs untreated controls, 100% = plants have died
# How it was run: (§3)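 Greenhouse pot plants in sandy loam were sprayed post-emergence at the one-leaf stage (2–3 weeks after sowing) with WP or EC formulations plus 0.5% additive at 600 l/ha water. Activity was rated visually after about 3 weeks versus untreated controls (100% = dead, 0% = like control); rates were 20 g/ha or less, and 5 g/ha or less in the comparative test.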
# [13] = system: Echinochloa crus-galli (ECHCG); assay: as above
# How it was run: as §3
# [14] = system: Matricaria inodora (MATIN); assay: as above
# How it was run: as §3
# [15] = system: Setaria viridis (SETVI); assay: as above
# How it was run: as §3
# [16] = system: Oryza sativa (ORYSA); assay: Post-emergence crop plant compatibility, greenhouse pot test (also comparative test C); conditions: for Post-emergence action against ORYSA (crop plant compatibility): vs untreated controls
# How it was run: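 Visual damage versus untreated plants (0% = like control, 100% = plants died) was scored about 3 weeks after a post-emergence spray in greenhouse pots. Treatment: one-leaf stage, WP or EC in water at 600 l/ha with 0.5% additive; a/b/c mark different dosages on the same crop.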
compound,measurement,setting,value
"Cn1c(C(F)(F)F)cc(=O)n(-c2cc(Oc3ccccc3OCC(=O)OCC#N)c([N+](=O)[O-])cc2F)c1=O [I.6-176, Cyanomethyl (2-{4-fluoro-5-[3-methyl-2,6-dioxo-4-(trifluoromethyl)-3,6-dihydropyrimidin-1(2H)-yl]-2-nitrophenoxy}phenoxy)acetate]",Post-emergence action against ZEAMX (crop plant compatibility),[1],10%
same,Post-emergence action against GLXMA in %,[2]; 1.25 g/ha,20%
same,Post-emergence action against GLXMA in %,[2]; 5 g/ha,20%
same,Post-emergence action against TRZAS (crop plant compatibility),[3]; 1.25 g/ha,20%
same,Post-emergence action against TRZAS (crop plant compatibility),[3]; 5 g/ha,20%
same,Post-emergence action against TRZAS (crop plant compatibility),[3]; 20 g/ha,20%
same,pest or weed control at 1.25 g/ha,"[4]; Amaranthus retroflexus, 504 h, 1.25 g/ha, read-out: Post-emergence action at 1.25 g/ha against AMARE in %",100%
same,pest or weed control at 5 g/ha,"[4]; Amaranthus retroflexus, 504 h, 5 g/ha, read-out: Post-emergence action at 5 g/ha against AMARE in %",100%
same,pest or weed control at 20 g/ha,"[4]; Amaranthus retroflexus, 504 h, 20 g/ha, read-out: Post-emergence action at 20 g/ha against AMARE in %",100%
same,pest or weed control at 1.25 g/ha,"[5]; Veronica persica, 504 h, 1.25 g/ha, read-out: Post-emergence action against VERPE",80%
same,pest or weed control at 5 g/ha,"[5]; Veronica persica, 504 h, 5 g/ha, read-out: Post-emergence action against VERPE",90%
same,pest or weed control at 20 g/ha,"[5]; Veronica persica, 504 h, 20 g/ha, read-out: Post-emergence action against VERPE",100%
same,pest or weed control at 1.25 g/ha,"[6]; Abutilon theophrasti, 504 h, 1.25 g/ha, read-out: Post-emergence action at 1.25 g/ha against ABUTH in %",100%
same,pest or weed control at 5 g/ha,"[6]; Abutilon theophrasti, 504 h, 5 g/ha, read-out: Post-emergence action at 5 g/ha against ABUTH in %",100%
same,pest or weed control at 20 g/ha,"[6]; Abutilon theophrasti, 504 h, 20 g/ha, read-out: Post-emergence action at 20 g/ha against ABUTH in %",100%
same,pest or weed control at 1.25 g/ha,"[7]; Viola tricolor, 504 h, 1.25 g/ha, read-out: Post-emergence action against VIOTR",100%
same,pest or weed control at 5 g/ha,"[7]; Viola tricolor, 504 h, 5 g/ha, read-out: Post-emergence action against VIOTR",100%
same,pest or weed control at 20 g/ha,"[7]; Viola tricolor, 504 h, 20 g/ha, read-out: Post-emergence action against VIOTR",100%
same,pest or weed control at 20 g/ha,"[8]; Avena fatua, 504 h, read-out: Post-emergence action at 20 g/ha against AVEFA in %",80%
same,pest or weed control at 1.25 g/ha,"[9]; Ipomoea purpurea, 504 h, dosage 1.25 g/ha, read-out: Post-emergence action against PHBPU in %",80%
same,pest or weed control at 5 g/ha,"[9]; Ipomoea purpurea, 504 h, dosage 5 g/ha, read-out: Post-emergence action against PHBPU in %",100%
same,pest or weed control at 20 g/ha,"[9]; Ipomoea purpurea, 504 h, dosage 20 g/ha, read-out: Post-emergence action against PHBPU in %",100%
same,pest or weed control at 20 g/ha,"[10]; Lolium rigidum, 504 h, read-out: Post-emergence action against LOLRI in %",90%
same,pest or weed control at 20 g/ha,"[11]; Fallopia convolvulus, 504 h, read-out: Post-emergence action against POLCO in %",100%
same,pest or weed control at 5 g/ha,"[12]; Alopecurus myosuroides, 504 h, 5 g/ha, read-out: Post-emergence action at 5 g/ha against ALOMY in %",80%
same,pest or weed control at 20 g/ha,"[12]; Alopecurus myosuroides, 504 h, 20 g/ha, read-out: Post-emergence action at 20 g/ha against ALOMY in %",90%
same,Post-emergence action at 1.25 g/ha against ECHCG in %,"[13]; 1.25 g/ha, rated visually after about 3 weeks vs untreated controls, 100% = plants have died",100%
same,pest or weed control at 5 g/ha,"[13]; Echinochloa crus-galli, 504 h, dosage 5 g/ha, read-out: Post-emergence action against ECHCG in %",100%
same,pest or weed control at 20 g/ha,"[13]; Echinochloa crus-galli, 504 h, dosage 20 g/ha, read-out: Post-emergence action against ECHCG in %",100%
same,pest or weed control at 5 g/ha,"[14]; Tripleurospermum inodorum, 504 h, dosage 5 g/ha, read-out: Post-emergence action against MATIN in %",80%
same,pest or weed control at 20 g/ha,"[14]; Tripleurospermum inodorum, 504 h, dosage 20 g/ha, read-out: Post-emergence action against MATIN in %",100%
same,pest or weed control at 20 g/ha,"[15]; Setaria viridis, 504 h, 20 g/ha, read-out: Post-emergence action against SETVI",100%
same,pest or weed control at 1.25 g/ha,"[15]; Setaria viridis, 504 h, dosage 1.25 g/ha, read-out: Post-emergence action against SETVI in %",100%
same,pest or weed control at 5 g/ha,"[15]; Setaria viridis, 504 h, dosage 5 g/ha, read-out: Post-emergence action against SETVI in %",100%
same,Post-emergence action against ORYSA (crop plant compatibility),[16]; 1.25 g/ha,0%
same,Post-emergence action against ORYSA (crop plant compatibility),[16]; 5 g/ha,20%
Cn1c(C(F)(F)F)cc(=O)n(-c2cc(Oc3ccccc3OCC(=O)OCc3ccccn3)c([N+](=O)[O-])cc2F)c1=O [I.6-276],Post-emergence action against ZEAMX (crop plant compatibility),[1],10%
same,Post-emergence action against GLXMA in %,[2]; 1.25 g/ha,20%
same,Post-emergence action against TRZAS (crop plant compatibility),[3]; 1.25 g/ha,10%
same,Post-emergence action against TRZAS (crop plant compatibility),[3]; 5 g/ha,10%
same,Post-emergence action at 1.25 g/ha against AMARE in %,[4]; 1.25 g/ha,100%
same,Post-emergence action at 5 g/ha against AMARE in %,[4]; 5 g/ha,100%
same,Post-emergence action at 20 g/ha against AMARE in %,[4]; 20 g/ha,100%
same,Post-emergence action against VERPE,[5]; 5 g/ha,100%
same,Post-emergence action against VERPE,[5]; 20 g/ha,100%
same,Post-emergence action at 1.25 g/ha against ABUTH in %,[6]; 1.25 g/ha,100%
same,Post-emergence action at 5 g/ha against ABUTH in %,[6]; 5 g/ha,100%
same,Post-emergence action at 20 g/ha against ABUTH in %,[6]; 20 g/ha,100%
same,Post-emergence action against VIOTR,[7]; 1.25 g/ha,100%
same,Post-emergence action against VIOTR,[7]; 5 g/ha,100%
same,Post-emergence action against VIOTR,[7]; 20 g/ha,100%
same,Post-emergence action at 20 g/ha against AVEFA in %,[8],80%
same,Post-emergence action against PHBPU in %,[9]; dosage 1.25 g/ha,100%
same,Post-emergence action against PHBPU in %,[9]; dosage 5 g/ha,100%
same,Post-emergence action against PHBPU in %,[9]; dosage 20 g/ha,100%
same,Post-emergence action against LOLRI in %,[10],90%
same,Post-emergence action against POLCO in %,[11],100%
same,Post-emergence action at 5 g/ha against ALOMY in %,[12]; 5 g/ha,80%
same,Post-emergence action at 20 g/ha against ALOMY in %,[12]; 20 g/ha,100%
same,Post-emergence action against ECHCG in %,[13]; dosage 5 g/ha,90%
same,Post-emergence action against ECHCG in %,[13]; dosage 20 g/ha,100%
same,Post-emergence action against MATIN in %,[14]; dosage 5 g/ha,100%
same,Post-emergence action against MATIN in %,[14]; dosage 20 g/ha,100%
same,Post-emergence action against SETVI,[15]; 20 g/ha,100%
same,Post-emergence action against SETVI in %,[15]; dosage 1.25 g/ha,100%
same,Post-emergence action against SETVI in %,[15]; dosage 5 g/ha,100%
same,Post-emergence action against ORYSA (crop plant compatibility),[16]; 1.25 g/ha,0%
same,Post-emergence action against ORYSA (crop plant compatibility),[16]; 5 g/ha,10%
same,Post-emergence action against ORYSA in %,"[16]; 20 g/ha, crop plant compatibility",20%
